# Source: ChEMBL document CHEMBL1933046, “Synthesis and antibacterial activity of a novel series of acylides active against community acquired respiratory pathogens” (2012)
# How the values were obtained:
# Type in all cases: functional
# Streptococcus pneumoniae [1] = assay: Antibacterial activity against Streptococcus pneumoniae 6303 by NCCLS method
# Streptococcus pneumoniae [2] = assay: Antibacterial activity against Streptococcus pneumoniae 994 expressing mef gene by NCCLS method
# Streptococcus pneumoniae [3] = assay: Antibacterial activity against Streptococcus pneumoniae 3579 expressing erm gene by NCCLS method
# Streptococcus pneumoniae [4] = assay: Antibacterial activity against Streptococcus pneumoniae 49619 by NCCLS method
# Streptococcus pyogenes = assay: Antibacterial activity against Streptococcus pyogenes 19615 by NCCLS method
# Moraxella catarrhalis = assay: Antibacterial activity against Moraxella catarrhalis 8176 by NCCLS method
# Streptococcus pneumoniae [5] = assay: Antibacterial activity against Streptococcus pneumoniae by NCCLS method
SMILES,MIC (Streptococcus pneumoniae [5]) [µg/mL],other results
C=CCN(C)[C@H]1C[C@@H](C)O[C@@H](O[C@@H]2[C@@H](C)[C@H](OC(=O)Cc3ccccn3)[C@@H](C)C(=O)O[C@H](CC)[C@@]3(C)OC(=O)N[C@@H]3[C@@H](C)C(=O)[C@H](C)C[C@@]2(C)OC)[C@@H]1O,,MIC (Streptococcus pneumoniae [1]): 0.125 µg/mL; MIC (Streptococcus pneumoniae [2]): 0.125 µg/mL; MIC (Streptococcus pneumoniae [3]): 8 µg/mL; MIC (Streptococcus pneumoniae [4]): 0.015 µg/mL; MIC (Streptococcus pyogenes): 0.015 µg/mL; MIC (Moraxella catarrhalis): 1 µg/mL
CC[C@H]1OC(=O)[C@H](C)[C@@H](OC(=O)Cc2cccc([N+](=O)[O-])c2)[C@H](C)[C@@H](O[C@@H]2O[C@H](C)C[C@H](N(C)C3CC3)[C@H]2O)[C@](C)(OC)C[C@@H](C)C(=O)[C@H](C)[C@@H](O)[C@]1(C)O,16,
CC[C@H]1OC(=O)[C@H](C)[C@@H](OC(=O)Cc2ccncc2)[C@H](C)[C@@H](O[C@@H]2O[C@H](C)C[C@H](N(C)CC3CC3)[C@H]2O)[C@](C)(OC)C[C@@H](C)C(=O)[C@H](C)[C@@H](O)[C@]1(C)O,32,
CC[C@H]1OC(=O)[C@H](C)[C@@H](OC(=O)Cc2ccncc2)[C@H](C)[C@@H](O[C@@H]2O[C@H](C)C[C@H](N(C)C3CC3)[C@H]2O)[C@](C)(OC)C[C@@H](C)C(=O)[C@H](C)[C@@H](O)[C@]1(C)O,> 32,
C#CCN(C)[C@H]1C[C@@H](C)O[C@@H](O[C@@H]2[C@@H](C)[C@H](OC(=O)Cc3cccnc3)[C@@H](C)C(=O)O[C@H](CC)[C@@](C)(O)[C@H](O)[C@@H](C)C(=O)[C@H](C)C[C@@]2(C)OC)[C@@H]1O,2,
CC[C@H]1OC(=O)[C@H](C)[C@@H](OC(=O)Cc2cccc(F)c2)[C@H](C)[C@@H](O[C@@H]2O[C@H](C)C[C@H](N(C)C3CC3)[C@H]2O)[C@](C)(OC)C[C@@H](C)C(=O)[C@H](C)[C@@H](O)[C@]1(C)O,> 16,
CC[C@H]1OC(=O)[C@H](C)[C@@H](OC(=O)Cc2ccccc2F)[C@H](C)[C@@H](O[C@@H]2O[C@H](C)C[C@H](N(C)C3CC3)[C@H]2O)[C@](C)(OC)C[C@@H](C)C(=O)[C@H](C)[C@@H](O)[C@]1(C)O,16,
CC[C@H]1OC(=O)[C@H](C)[C@@H](OC(=O)Cc2cccc(F)c2)[C@H](C)[C@@H](O[C@@H]2O[C@H](C)C[C@H](N(C)CC3CC3)[C@H]2O)[C@](C)(OC)C[C@@H](C)C(=O)[C@H](C)[C@@H](O)[C@]1(C)O,8,
C=CCN(C)[C@H]1C[C@@H](C)O[C@@H](O[C@@H]2[C@@H](C)[C@H](OC(=O)Cc3ccccn3)[C@@H](C)C(=O)O[C@H](CC)[C@@]3(C)OC(=O)N(CCCCn4cnc(-c5cnc(N)nc5)c4)[C@@H]3[C@@H](C)C(=O)[C@H](C)C[C@@]2(C)OC)[C@@H]1O,,MIC (Streptococcus pneumoniae [1]): 0.03 µg/mL; MIC (Streptococcus pneumoniae [2]): 0.06 µg/mL; MIC (Streptococcus pneumoniae [3]): 0.125 µg/mL; MIC (Streptococcus pneumoniae [4]): 0.03 µg/mL; MIC (Streptococcus pyogenes): 2 µg/mL; MIC (Moraxella catarrhalis): 0.125 µg/mL
CC[C@H]1OC(=O)[C@H](C)[C@@H](OC(=O)Cc2ccc([N+](=O)[O-])cc2)[C@H](C)[C@@H](O[C@@H]2O[C@H](C)C[C@H](N(C)C3CC3)[C@H]2O)[C@](C)(OC)C[C@@H](C)C(=O)[C@H](C)[C@@H](O)[C@]1(C)O,> 32,
C#CCN(C)[C@H]1C[C@@H](C)O[C@@H](O[C@@H]2[C@@H](C)[C@H](OC(=O)Cc3ccccn3)[C@@H](C)C(=O)O[C@H](CC)[C@@](C)(O)[C@H](O)[C@@H](C)C(=O)[C@H](C)C[C@@]2(C)OC)[C@@H]1O,4,

# Second part, led by results:
MIC (Streptococcus pneumoniae [5]) [µg/mL],SMILES,other results
2,C#CCN(C)[C@H]1C[C@@H](C)O[C@@H](O[C@@H]2[C@@H](C)[C@H](OC(=O)Cc3ccccc3[N+](=O)[O-])[C@@H](C)C(=O)O[C@H](CC)[C@@](C)(O)[C@H](O)[C@@H](C)C(=O)[C@H](C)C[C@@]2(C)OC)[C@@H]1O,
0.25,C=CCN(C)[C@H]1C[C@@H](C)O[C@@H](O[C@@H]2[C@@H](C)[C@H](OC(=O)Cc3ccccc3F)[C@@H](C)C(=O)O[C@H](CC)[C@@](C)(O)[C@H](O)[C@@H](C)C(=O)[C@H](C)C[C@@]2(C)OC)[C@@H]1O,
0.5,C=CCN(C)[C@H]1C[C@@H](C)O[C@@H](O[C@@H]2[C@@H](C)[C@H](OC(=O)Cc3ccc(F)cc3)[C@@H](C)C(=O)O[C@H](CC)[C@@](C)(O)[C@H](O)[C@@H](C)C(=O)[C@H](C)C[C@@]2(C)OC)[C@@H]1O,
1,CC[C@H]1OC(=O)[C@H](C)[C@@H](OC(=O)Cc2ccc([N+](=O)[O-])cc2)[C@H](C)[C@@H](O[C@@H]2O[C@H](C)C[C@H](N(C)CC3CC3)[C@H]2O)[C@](C)(OC)C[C@@H](C)C(=O)[C@H](C)[C@@H](O)[C@]1(C)O,
2,CC[C@H]1OC(=O)[C@H](C)[C@@H](OC(=O)Cc2cccc(F)c2)[C@H](C)[C@@H](O[C@@H]2O[C@H](C)C[C@H](N(C)Cc3ccc(F)cc3)[C@H]2O)[C@](C)(OC)C[C@@H](C)C(=O)[C@H](C)[C@@H](O)[C@]1(C)O,
0.25,C=CCN(C)[C@H]1C[C@@H](C)O[C@@H](O[C@@H]2[C@@H](C)[C@H](OC(=O)Cc3ccccc3[N+](=O)[O-])[C@@H](C)C(=O)O[C@H](CC)[C@@](C)(O)[C@H](O)[C@@H](C)C(=O)[C@H](C)C[C@@]2(C)OC)[C@@H]1O,
0.5,CC[C@H]1OC(=O)[C@H](C)[C@@H](OC(=O)Cc2ccccc2F)[C@H](C)[C@@H](O[C@@H]2O[C@H](C)C[C@H](N(C)Cc3ccccc3)[C@H]2O)[C@](C)(OC)C[C@@H](C)C(=O)[C@H](C)[C@@H](O)[C@]1(C)O,
0.25,C=CCN(C)[C@H]1C[C@@H](C)O[C@@H](O[C@@H]2[C@@H](C)[C@H](OC(=O)Cc3cccnc3)[C@@H](C)C(=O)O[C@H](CC)[C@@](C)(O)[C@H](O)[C@@H](C)C(=O)[C@H](C)C[C@@]2(C)OC)[C@@H]1O,
0.125,CC[C@H]1OC(=O)[C@H](C)[C@@H](OC(=O)Cc2cccc(F)c2)[C@H](C)[C@@H](O[C@@H]2O[C@H](C)C[C@H](N(C)CC)[C@H]2O)[C@](C)(OC)C[C@@H](C)C(=O)[C@H](C)[C@@H](O)[C@]1(C)O,
0.5,CC[C@H]1OC(=O)[C@H](C)[C@@H](OC(=O)Cc2ccc([N+](=O)[O-])cc2)[C@H](C)[C@@H](O[C@@H]2O[C@H](C)C[C@H](N(C)CC)[C@H]2O)[C@](C)(OC)C[C@@H](C)C(=O)[C@H](C)[C@@H](O)[C@]1(C)O,
2,C#CCN(C)[C@H]1C[C@@H](C)O[C@@H](O[C@@H]2[C@@H](C)[C@H](OC(=O)Cc3cccc(F)c3)[C@@H](C)C(=O)O[C@H](CC)[C@@](C)(O)[C@H](O)[C@@H](C)C(=O)[C@H](C)C[C@@]2(C)OC)[C@@H]1O,
0.125,C=CCN(C)[C@H]1C[C@@H](C)O[C@@H](O[C@@H]2[C@@H](C)[C@H](OC(=O)Cc3cccc(F)c3)[C@@H](C)C(=O)O[C@H](CC)[C@@](C)(O)[C@H](O)[C@@H](C)C(=O)[C@H](C)C[C@@]2(C)OC)[C@@H]1O,
0.5,C#CCN(C)[C@H]1C[C@@H](C)O[C@@H](O[C@@H]2[C@@H](C)[C@H](OC(=O)Cc3ccccc3F)[C@@H](C)C(=O)O[C@H](CC)[C@@](C)(O)[C@H](O)[C@@H](C)C(=O)[C@H](C)C[C@@]2(C)OC)[C@@H]1O,
0.5,CC[C@H]1OC(=O)[C@H](C)[C@@H](OC(=O)Cc2cccnc2)[C@H](C)[C@@H](O[C@@H]2O[C@H](C)C[C@H](N(C)CC)[C@H]2O)[C@](C)(OC)C[C@@H](C)C(=O)[C@H](C)[C@@H](O)[C@]1(C)O,
0.5,CC[C@H]1OC(=O)[C@H](C)[C@@H](OC(=O)Cc2ccc(F)cc2)[C@H](C)[C@@H](O[C@@H]2O[C@H](C)C[C@H](N(C)CC)[C@H]2O)[C@](C)(OC)C[C@@H](C)C(=O)[C@H](C)[C@@H](O)[C@]1(C)O,
